According to patent US20230303542A1, “SOLID FORMS OF A PARP14 INHIBITOR” (Ribon Therapeutics, Inc., priority 2022, published 2023):
In brackets after ≈: the same amount, converted by molar mass. Values belong to the molecule of their own block, whether it stands above or below them.

Experiments:
Type in all cases: physicochemical
[1] = Preliminary solubility of Compound 1 Form I, visual assessment; conditions: thermodynamic from solid, estimated via visual assessment
[2] = Kinetic solubility of Form II, clear temperature point by Crystal 16; conditions: organic solvent or mixture, thermodynamic from solid; at 30° C.; volume ratio of MeOH-water/MTBE 9/1/30
[3] = Solid-state stability study (HPLC purity and XRPD); conditions: 60° C. (closed) and 40° C./75%RH for 14 days
Method: HPLC analysis was performed with an Agilent HPLC 1260 series instrument.
At day 0, 7 and 14, the sample was dissolved in diluent to prepare solution for HPLC purity analysis. Solid samples were analyzed by XRPD to check the crystal form.
(closed) and 40° C./75%RH (open) up to 14 days, samples were prepared in duplicate for each condition. […] (closed) and 40° C./75%RH for 14 days.

[4] = Dynamic solubility of Form II in single solvents, dissolution observed visually; conditions: thermodynamic from solid, 22° C.
Method: An appropriate amount of Form II was weighed into a sample vial and then the indicated solvent was added gradually until all the solid was dissolved at RT. The dissolution was observed visually.

[5] = Dynamic solubility of Form II in mixed solvents, dissolution observed visually; conditions: thermodynamic from solid
Description: The solubility data was used to control supersaturation and calculate theoretical yield of the crystallization process.

[6] = organic solvent or mixture, 2-Me-THF
[7] = organic solvent or mixture, Acetone
[8] = organic solvent or mixture, Ethanol (EtOH)
[9] = organic solvent or mixture, Ethyl acetate (EA)
[10] = organic solvent or mixture, Methanol (MeOH)
[11] = organic solvent or mixture, Methyl ethyl ketone (MEK)

solubility [1, 6]: 10000 µg/mL (≈ 22.2 mM)
solubility ([1]; organic solvent or mixture, ACN): < 600 µg/mL
solubility [1, 7]: 1000 µg/mL (≈ 2.22 mM)
solubility ([1]; organic solvent or mixture, DCM): 6300 µg/mL (≈ 14 mM)
solubility ([1]; organic solvent or mixture, DMSO): 16700 µg/mL (≈ 37.1 mM)
solubility [1, 8]: 3300 µg/mL (≈ 7.34 mM)
solubility [1, 9]: 2500 µg/mL (≈ 5.56 mM)
solubility ([1]; organic solvent or mixture, Heptane): < 600 µg/mL
solubility ([1]; organic solvent or mixture, Isopropyl acetate (IPAC)): 1300 µg/mL (≈ 2.89 mM)
solubility ([1]; organic solvent or mixture, Isopropyl alcohol (IPA)): < 600 µg/mL
solubility [1, 10]: 10000 µg/mL (≈ 22.2 mM)
solubility [1, 11]: 10000 µg/mL (≈ 22.2 mM)
solubility ([1]; organic solvent or mixture, Methyl tert-butyl ether (MTBE)): < 600 µg/mL
solubility ([1]; organic solvent or mixture, THF): 4200 µg/mL (≈ 9.34 mM)
solubility ([1]; organic solvent or mixture, Toluene): < 600 µg/mL
solubility ([1]; Water): < 600 µg/mL
SMILES: CC(=O)N1CCC(COc2cc(F)c3c(=O)[nH]c(CSC4CCOCC4)nc3c2)CC1 [Form I, 7-((1-acetylpiperidin-4-yl)methoxy)-5-fluoro-2-(((tetrahydro-2H-pyran-4-yl)thio)methyl)quinazolin-4(3H)-one]

solubility at 30 min [2]: 6500 µg/mL
Physical and chemical stability [3]: both physically and chemically stable
solubility [4, 6]: 700 µg/mL (≈ 1.56 mM)
solubility ([4]; organic solvent or mixture, 2-Propanol (IPA)): < 600 µg/mL
solubility ([4]; organic solvent or mixture, Acetic acid): > 167000 µg/mL
solubility [4, 7]: 800 µg/mL (≈ 1.78 mM)
solubility ([4]; organic solvent or mixture, Acetonitrile (ACN)): 600 µg/mL (≈ 1.33 mM)
solubility ([4]; organic solvent or mixture, Dichloromethane (DCM)): 16700 µg/mL (≈ 37.1 mM)
solubility ([4]; organic solvent or mixture, Dimethyl sulfoxide (DMSO)): 12500 µg/mL (≈ 27.8 mM)
solubility [4, 8]: 1000 µg/mL (≈ 2.22 mM)
solubility [4, 9]: < 600 µg/mL
solubility ([4]; organic solvent or mixture, Isopropyl acetate (IPAc)): < 600 µg/mL
solubility [4, 10]: 8300 µg/mL (≈ 18.5 mM)
solubility [4, 11]: 1700 µg/mL (≈ 3.78 mM)
solubility ([4]; organic solvent or mixture, Tert-Butyl methyl ether (MTBE)): < 600 µg/mL
solubility ([4]; organic solvent or mixture, Tetrahydrofuran (THF)): 4200 µg/mL (≈ 9.34 mM)
solubility ([4]; organic solvent or mixture, Toluene (Tol)): < 600 µg/mL
solubility ([4]; organic solvent or mixture, n-Heptane (Hept)): < 600 µg/mL
solubility ([4]; Water): < 600 µg/mL
solubility ([5]; MeOH/Anisole (1/2), organic solvent or mixture, MeOH/Anisole (½), 25° C.): ~150000 µg/mL (≈ 334 mM)
solubility ([5]; MeOH/Anisole (1/2), organic solvent or mixture, MeOH/Anisole (½), 40° C.): > 200000 µg/mL
solubility ([5]; organic solvent or mixture, Anisole, 25° C.): < 1000 µg/mL
solubility ([5]; organic solvent or mixture, MeOH/Anisole (1/1), 25° C.): 163000 to 176000 µg/mL (≈ 363 to 392 mM)
solubility ([5]; organic solvent or mixture, MeOH/Anisole (1/1), 40° C.): ~250000 µg/mL (≈ 556 mM)
solubility ([5]; organic solvent or mixture, MeOH/Anisole (2/1), 25° C.): 96000 to 106000 µg/mL (≈ 214 to 236 mM)
solubility at 30 min ([5]; organic solvent or mixture, MeOH/Anisole, volume ratio 1/1, RT, read-out: Solubility): 150000 to 160000 µg/mL
solubility ([5]; organic solvent or mixture, MeOH/Anisole/Hept (1/1/6), 25° C.): < 5000 µg/mL
solubility ([5]; organic solvent or mixture, MeOH/Anisole/Hept (1/2/3), 25° C.): > 10000 µg/mL
solubility ([5]; organic solvent or mixture, MeOH/Anisole/Hept (1/2/6), 25° C.): ~5000 µg/mL (≈ 11.1 mM)
solubility ([5]; organic solvent or mixture, MeOH/Anisole/MTBE (1/2/6), 25° C.): ~3000 µg/mL (≈ 6.67 mM)
solubility at 30 min ([5]; organic solvent or mixture, MeOH/MEK, volume ratio 1/1, RT, read-out: Solubility): 20000 to 30000 µg/mL
solubility ([5]; organic solvent or mixture, MeOH/water (7/3), 60° C.): ~125000 µg/mL (≈ 278 mM)
solubility at 30 min ([5]; organic solvent or mixture, MeOH/water (7/3), RT, read-out: Dynamic solubility): 10000 to 13000 µg/mL (≈ 22.2 to 28.9 mM)
solubility ([5]; organic solvent or mixture, MeOH/water (8/2), 50° C.): 50000 to 100000 µg/mL (≈ 111 to 222 mM)
solubility ([5]; organic solvent or mixture, MeOH/water (8/2), 60° C.): > 125000 µg/mL
solubility at 30 min ([5]; organic solvent or mixture, MeOH/water (8/2), RT, read-out: Dynamic solubility): 13000 to 17000 µg/mL (≈ 28.9 to 37.8 mM)
solubility ([5]; organic solvent or mixture, MeOH/water (9/1), 0° C.): 6000 to 10000 µg/mL (≈ 13.3 to 22.2 mM)
solubility ([5]; organic solvent or mixture, MeOH/water (9/1), 60° C.): > 125000 µg/mL
solubility at 30 min ([5]; organic solvent or mixture, MeOH/water (9/1), RT (Table of MeOH/Water), read-out: Dynamic solubility): 10000 to 13000 µg/mL (≈ 22.2 to 28.9 mM)
solubility at 30 min ([5]; organic solvent or mixture, MeOH/water, volume ratio 9/1, RT (Table of mixed solvents at RT), read-out: Solubility): 35000 to 43000 µg/mL
solubility ([5]; organic solvent or mixture, MeOH/water/MTBE (9/1/10), 0° C.): > 4500 µg/mL
solubility ([5]; organic solvent or mixture, MeOH/water/MTBE (9/1/20), 0° C.): ~3000 µg/mL (≈ 6.67 mM)
solubility ([5]; organic solvent or mixture, MeOH, 25° C.): 8300 µg/mL (≈ 18.5 mM)
solubility ([5]; organic solvent or mixture, MeOH, 50° C.): 29000 to 33000 µg/mL (≈ 64.5 to 73.4 mM)
solubility ([5]; organic solvent or mixture, MeOH, 60° C.): 71000 to 83000 µg/mL (≈ 158 to 185 mM)
solubility at 30 min ([5]; organic solvent or mixture, MeOH, RT, read-out: Dynamic solubility): 8300 µg/mL (≈ 18.5 mM)
solubility at 30 min ([5]; volume ratio 1/2, organic solvent or mixture, Ethyl formate/Acetone, volume ratio ½, RT, read-out: Solubility): < 2000 µg/mL
solubility at 30 min ([5]; volume ratio 1/2, organic solvent or mixture, Ethyl formate/EA, volume ratio ½, RT, read-out: Solubility): < 1000 µg/mL
solubility at 30 min ([5]; volume ratio 1/2, organic solvent or mixture, Ethyl formate/IPA, volume ratio ½, RT, read-out: Solubility): < 2000 µg/mL
solubility at 30 min ([5]; volume ratio 1/2, organic solvent or mixture, Ethyl formate/IPAC, volume ratio ½, RT, read-out: Solubility): < 1000 µg/mL
solubility at 30 min ([5]; volume ratio 1/2, organic solvent or mixture, Ethyl formate/MEK, volume ratio ½, RT, read-out: Solubility): < 2000 µg/mL
solubility at 30 min ([5]; volume ratio 1/2, organic solvent or mixture, Ethyl formate/MTBE, volume ratio ½, RT, read-out: Solubility): < 2000 µg/mL
solubility at 30 min ([5]; volume ratio 1/2, organic solvent or mixture, Ethyl formate/diethyl ether, volume ratio ½, RT, read-out: Solubility): 7000 to 8000 µg/mL
solubility at 30 min ([5]; volume ratio 1/2, organic solvent or mixture, Ethyl formate/n-BuOH, volume ratio ½, RT, read-out: Solubility): 3000 to 4000 µg/mL
solubility at 30 min ([5]; volume ratio 1/2, organic solvent or mixture, MEK/EA, volume ratio ½, RT, read-out: Solubility): < 1000 µg/mL
solubility at 30 min ([5]; volume ratio 1/2, organic solvent or mixture, MEK/Ethyl formate, volume ratio ½, RT, read-out: Solubility): < 1000 µg/mL
solubility at 30 min ([5]; volume ratio 1/2, organic solvent or mixture, MEK/IPA, volume ratio ½, RT, read-out: Solubility): < 1000 µg/mL
solubility at 30 min ([5]; volume ratio 1/2, organic solvent or mixture, MEK/IPAC, volume ratio ½, RT, read-out: Solubility): < 1000 µg/mL
solubility at 30 min ([5]; volume ratio 1/2, organic solvent or mixture, MEK/diethyl ether, volume ratio ½, RT, read-out: Solubility): < 1000 µg/mL
solubility at 30 min ([5]; volume ratio 1/2, organic solvent or mixture, MEK/n-BuOH, volume ratio ½, RT, read-out: Solubility): < 1000 µg/mL
solubility at 30 min ([5]; volume ratio 1/2, organic solvent or mixture, MeOH/Acetone, volume ratio ½, RT, read-out: Solubility): < 14000 µg/mL
solubility at 30 min ([5]; volume ratio 1/2, organic solvent or mixture, MeOH/Diethyl ether, volume ratio ½, RT, read-out: Solubility): < 2000 µg/mL
solubility at 30 min ([5]; volume ratio 1/2, organic solvent or mixture, MeOH/EA, volume ratio ½, RT, read-out: Solubility): < 10000 µg/mL
solubility at 30 min ([5]; volume ratio 1/2, organic solvent or mixture, MeOH/Ethyl formate, volume ratio ½, RT, read-out: Solubility): < 25000 µg/mL
solubility at 30 min ([5]; volume ratio 1/2, organic solvent or mixture, MeOH/MEK, volume ratio ½, RT, read-out: Solubility): 24000 to 30000 µg/mL
solubility at 30 min ([5]; volume ratio 1/2, organic solvent or mixture, MeOH/n-BuOH, volume ratio ½, RT, read-out: Solubility): < 3000 µg/mL
solubility at 30 min ([5]; volume ratio 1/9, organic solvent or mixture, MeOH/Ethyl formate, volume ratio ⅑, RT, read-out: Solubility): < 1000 µg/mL
solubility at 30 min ([5]; volume ratio 1/9, organic solvent or mixture, MeOH/MEK, volume ratio ⅑, RT, read-out: Solubility): 7000 to 8000 µg/mL
SMILES: CC(=O)N1CCC(COc2cc(F)c3c(=O)[nH]c(CSC4CCOCC4)nc3c2)CC1 [Form II, 7-((1-acetylpiperidin-4-yl)methoxy)-5-fluoro-2-(((tetrahydro-2H-pyran-4-yl)thio)methyl)quinazolin-4(3H)-one]
